Patent US20080129961A1, “METHOD AND APPARATUS FOR MEASURING QUANTITY OF A FLUOROCHROME IN A BIOLOGICAL ENVIRONMENT” (priority 2006, published 2008)

Tests used:
[1] = pH stability of ICG emission intensity; type: physicochemical
[2] = Solubility and fluorescence behaviour of ICG in serum and vitreous humor
Experimental: ICG (Acros Organics, Fair Lawn, N.J.) was dissolved in PBS, pH 7.4, with 0.1% Tween 20 at 25° C. to make the aqueous standards. Fluorescence of a series of 1:2 dilutions were made with a spectrofluorometer beginning with a maximum concentration of 100 ng/ml down to a “blank” comprising PBS, pH 7.4, with 0.1% Tween with essentially no ICG (only trace amounts).

pH range across which emission intensity is stable [1]: 5-10 pH | solubility in serum and vitreous humor after pre-dissolution ([2]; first dissolved in PBS, pH 7.4, 0.1% Tween 20 (≧1000 ng/ml), then mixed with bovine vitreous humor or human serum): remain in solution | spectra and quantum yield in serum and vitreous humor compared to ICG in PBS with 0.1% Tween 20 ([2]; first dissolved in PBS, pH 7.4, 0.1% Tween 20, then mixed with bovine vitreous humor or human serum): maintain its spectra and quantum yield | solubility when mixed directly with serum or vitreous humor ([2]; mixed directly with serum or vitreous humor): not completely soluble
Compound: CC1(C)C(/C=C/C=C/C=C/C=C2\N(CCCCS(=O)(=O)[O-])c3ccc4ccccc4c3C2(C)C)=[N+](CCCCS(=O)(=O)[O-])c2ccc3ccccc3c21.[Na+] [ICG, indocyanin green]
